Legend:
[1] = system: human colorectal adenocarcinoma cell line HT-29; test: Xenograft study, HT-29 tumours in nude mice; format: in vivo, nude BALB/c mice
From the text: Female athymic nude BALB/c mice (BALB/cABom-Foxn1^nu, CA.Cg-Foxn1^nu) are obtained from Taconic Ltd, Ry, Denmark and maintained in the animal facility. Animals are approximately 6 weeks old with an initial body weight of 17-18 g when used for the experiments. The mice are housed in microisolators (filter top cages, Tecniplast, Buguggiata, Italy) under pathogen-free conditions with a 12-h light/12-h dark schedule and fed autoclaved standard chow (Altromin #1324, Lage, Germany) and water ad libitum throughout the experiment. All animals are handled under sterile conditions and maintained in a separate facility. The Danish Experimental Animal Inspectorate has approved the experimental protocol and all animal experiments are performed according to the ethical standards required by the UKCCCCR Guidelines {UKCCCR 1998}. During the study blood samples is taken one time per week. The number of animals per group (control-treatment) should be 8 animals at a minimum. Thirty-fifty percent more animals are inoculated with cells than needed in the study in order to be able to exclude animals in which there is no tumour take—i.e. the tumour fails to establish and grow progressively.
The human colorectal adenocarcinoma cell line HT-29 (HTB-38) has been obtained from the American Type Culture Collection (ATCC) Manassas, Va., USA. Tumour cells growing exponentially are harvested by brief incubation with 0.05% Trypsin-EDTA solution suspended in new medium for injection.
Tumour xenografts are initiated by subcutaneous (s.c.) injection of 10^7 cells into the left flank of nude mice. […]
Tumour volume, food consumption, body weight is measured twice a week. […] Evaluation of tumour growth: The tumours are measured every 3-4 day with a calliper. Baseline tumour weight are calculated by using the following formula mg=(L×W^2)/2 where L=length, W=width and these are perpendicular to each other {Teicher BA 1997}. […]
All data are expressed as the mean±SEM, and statistical analyses of the tumour data are performed using t-test. […]

XIAP = target: T1, XIAP (Homo sapiens, UniProt P98170); test: Pull down of XIAP from cell lysates by compound-carrying beads (Western); format: binding
T1 construct: pull down one member of the IAP family, XIAP from cell lysates prepared from various tissues; endogenous in cells; host or cells: Hek293 cells, Hela cells, colon tissue (lysates)
Experimental: Beads displaying compound 2CX2.201 or 2CX4.401 respectively are compared with regard to their ability to bind and pull down one member of the IAP family, XIAP from cell lysates prepared from various tissues.
• Positive control resin beads carrying a tetra-peptide (H-Ala-Val-Pro-Phe-Bead) mimicking the N-terminal part of Smac that binds to BIR3 domain of XIAP was prepared. The method of preparation was analogous to the general procedure described in example 2 with the change that only the four specific peptides were included in each of the four couplings and that the split and mix step was omitted. • Resin beads carrying 2CX2.201 was prepared as described above. • Resin beads carrying 2CX4.401 was prepared as described above. Lysate Preparation: • Hek293 and Hela: Cells are scraped off the plate in Phosphate Buffered Saline (PBS) at 4° C. • Colon tissue: Is blended into a homogeneous suspension in PBS at 4° C. • All cell suspensions are centrifuged for 10 min at 3000 rpm and supernatant is discarded. • Pellet is re-suspended in lysis buffer (50 mM Tris-HCL, 1 mM EGTA, 1 mM EDTA, 1% Triton-X W/W, 1 mM Sodium orthovanadate, 50 mM Sodium fluoride, 5 mM Sodium pyrophosphate, 1 mM MDTT, “Complete” (protease inh.) One tablet for 50 ml) • Incubate for 20 min at 4° C. • Centrifuge at 32.000 G for 30 min, 4° C. • Move supernatant to new vial (discard pellet) • Measure protein concentration Pull Down: • Bead/lysate ratio: 20 ul beads/10 mg lysate (equivalent to one pull down) • Beads are washed in 1 ml lysis buffer×2 • Lysate+beads are mixed and incubated for 1 hrs at 4° C., shaking • Beads are washed ×4 in 1 ml Lysis buffer w. […]

[2] = system: primary colon cancer cells from patients and colon cancer lines (i.e. HT29); test: Cell penetration, IAP inhibition and apoptosis in colon cancer cells; format: cell-based, human
[3] = Stability in serum from mice; format: in vitro ADME

T1 sequence (P98170 whole entry): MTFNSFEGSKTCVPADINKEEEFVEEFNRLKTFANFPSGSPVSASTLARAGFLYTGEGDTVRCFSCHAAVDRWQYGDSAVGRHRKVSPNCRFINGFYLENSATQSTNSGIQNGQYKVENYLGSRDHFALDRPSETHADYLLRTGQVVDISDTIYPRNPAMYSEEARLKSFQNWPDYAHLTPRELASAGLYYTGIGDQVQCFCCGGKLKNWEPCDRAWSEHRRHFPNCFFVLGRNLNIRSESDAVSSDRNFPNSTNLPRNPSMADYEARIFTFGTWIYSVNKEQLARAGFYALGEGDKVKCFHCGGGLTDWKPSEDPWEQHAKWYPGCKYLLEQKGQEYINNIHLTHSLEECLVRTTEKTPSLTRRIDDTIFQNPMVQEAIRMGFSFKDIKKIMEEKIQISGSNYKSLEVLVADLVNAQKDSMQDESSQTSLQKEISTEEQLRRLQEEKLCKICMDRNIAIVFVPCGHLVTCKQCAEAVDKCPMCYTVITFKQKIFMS

CN[C@@H](C)C(=O)N[C@H](C(=O)N1C[C@@H](NCC2CCCCC2)C[C@H]1C(=O)N[C@@H](Cc1ccccc1)C(N)=O)C(C)C [2CX4.401]
effect on Paclitaxel efficacy (tumour weight) ([1]; combination with paclitaxel, 29 days after inoculation, FIG. 4): significantly potentiated the effect of Paclitaxel
tumour weight relative to that observed with Paclitaxel alone ([1]; combined treatment: 2CX4.401 0.0625 mg/h osmotic pump + paclitaxel 25 mg/kg s.c. once a week, 29 days after inoculation): approx. 15%
tumour growth in mono-therapy ([1]; mono-therapy, osmotic pump 0.0625 mg/h, 29 days): does not affect tumour growth
affinity for XIAP, comparison of the two compounds (XIAP; conclusion from pull down experiments): significant higher affinity than that of 2CX2.201
pull down of XIAP (FIG. 5a) (XIAP; lysates of Hek293, Hela, colon tissue, compound on beads): approximately the same degree as the endogenous AVPF peptide
pull down of XIAP (FIG. 5b) (XIAP; prolonged exposure time to increase sensitivity): weaker effect
apoptosis [2]: promote apoptosis
inhibition of IAPs [2]: inhibits IAPs
stability in serum [3]: high degree of stability
